Source: ChEMBL document CHEMBL1201862, “PubChem BioAssay data set” (2004)
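1) Cells in 96-well plates. 2) Compound, 48 h, 5 concentrations. 3) Linear interpolation between surrounding doses. 4) Unreached endpoint = highest concentration. Here, GI50 denotes the concentration required for 50% inhibition of growth.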 The source made the active and inactive calls. No stated cut-off is given here; in the data, active = GI50 up to about 1.1 µM and inactive = higher.

Legend:
Assay in all cases: inhibition of tumour cell growth, NCI panel, 48 h
A498 = system: A498
A549 = system: A549
ACHN = system: ACHN
BT-549 = system: BT-549
CCRF-CEM = system: CCRF-CEM
Hs-578T = system: Hs-578T
MDA-MB-435 = system: MDA-MB-435
Malme-3M = system: Malme-3M
NCI-H226 = system: NCI-H226
NCI-H522 = system: NCI-H522
NCI/ADR-RES = system: NCI/ADR-RES
SN12C = system: SN12C
SNB-19 = system: SNB-19
SNB-75 = system: SNB-75
T47D = system: T47D
UACC-257 = system: UACC-257
COLO 205 = system: COLO 205
EKVX = system: EKVX
U-251 = system: U-251

Measured: GI50

O=C1N=C(SC2OC(CO)C(O)C(O)C2O)S/C1=C\c1ccccc1 (stereo not drawn)
inactive: A498 > 100 µM | A549 > 100 µM | ACHN > 100 µM | BT-549 > 100 µM | CCRF-CEM > 100 µM | Hs-578T > 100 µM | MDA-MB-435 > 100 µM | Malme-3M > 100 µM | NCI-H226 > 100 µM | NCI-H522 > 100 µM | NCI/ADR-RES > 100 µM | SN12C > 100 µM | SNB-19 > 100 µM | SNB-75 > 100 µM | T47D > 100 µM | UACC-257 > 100 µM

C=C(C)C(=O)CC[C@@H](C)[C@H]1[C@@H](OC2OC(CO)C(O)C(O)C2O)C[C@@]2(C)[C@@H]3C[C@H](O)C4C(C)(C)[C@@H](OC5OC(CO)C(O)C(O)C5O)CC[C@@]45C[C@@]35CC[C@]12C (stereo partly drawn)
inactive: A498 > 100 µM | A549 > 100 µM | ACHN > 100 µM | BT-549 36.6 µM | CCRF-CEM 64.9 µM | COLO 205 92 µM | EKVX > 100 µM | Hs-578T 91 µM | MDA-MB-435 68.9 µM | Malme-3M > 100 µM | NCI-H522 80.4 µM | NCI/ADR-RES > 100 µM | SN12C 68.1 µM | SNB-19 48.8 µM | SNB-75 > 100 µM | T47D > 100 µM | U-251 > 100 µM | UACC-257 > 100 µM

CC(C(=O)OCc1ccccc1)(c1ccco1)N1C(=O)OC(c2ccccc2)C1c1ccccc1 (stereo not drawn)
inactive: A498 > 59.8 µM | A549 > 100 µM | ACHN > 100 µM | BT-549 > 100 µM | CCRF-CEM 4.04 µM | COLO 205 > 100 µM | EKVX 99.3 µM | Hs-578T > 100 µM | MDA-MB-435 > 100 µM | Malme-3M > 100 µM | NCI-H226 > 100 µM | NCI-H522 > 100 µM | NCI/ADR-RES > 100 µM | SN12C > 100 µM | SNB-19 > 100 µM | SNB-75 > 100 µM | T47D 5.96 µM | U-251 > 100 µM | UACC-257 > 100 µM

C=C(Cl)C(Cl)(CBr)CCC(Br)C(C)(C)Br (stereo not drawn)
inactive: A498 10.5 µM | A549 4.9 µM | ACHN 2.62 µM | BT-549 7.66 µM | CCRF-CEM 6.21 µM | COLO 205 2.75 µM | EKVX 8.45 µM | Hs-578T 2.96 µM | MDA-MB-435 9.44 µM | Malme-3M 14.3 µM | NCI-H226 20.1 µM | NCI-H522 5.86 µM | NCI/ADR-RES 5.66 µM | SN12C 7.28 µM | SNB-19 8.75 µM | SNB-75 2.12 µM | T47D 2.25 µM | U-251 1.77 µM | UACC-257 1.8 µM

COC(=O)C1CC23C=CCN4CC(C2C)C2(c5ccccc5NC12)C43 (stereo not drawn)
inactive: A498 > 100 µM | A549 > 100 µM | ACHN > 100 µM | BT-549 > 100 µM | CCRF-CEM > 100 µM | COLO 205 > 100 µM | EKVX > 100 µM | Hs-578T > 100 µM | MDA-MB-435 > 100 µM | Malme-3M > 100 µM | NCI-H226 > 100 µM | NCI-H522 > 100 µM | NCI/ADR-RES > 100 µM | SN12C > 100 µM | SNB-19 > 100 µM | SNB-75 87.7 µM | T47D > 100 µM | U-251 > 100 µM | UACC-257 > 100 µM

Cn1cc(-c2ccc(CCOC3CCCCO3)cc2)c2c(C#N)cccc21 (stereo not drawn)
inactive: A498 61.2 µM | A549 31 µM | BT-549 98.6 µM | CCRF-CEM 24.4 µM | COLO 205 27 µM | EKVX 35.6 µM | Hs-578T > 100 µM | MDA-MB-435 36.9 µM | Malme-3M 83 µM | NCI-H522 > 100 µM | NCI/ADR-RES 30.9 µM | SN12C > 100 µM | SNB-19 > 100 µM | T47D 21.3 µM | U-251 28.6 µM | UACC-257 24.7 µM

CCOC(=O)C1(C(N)=O)C(=O)c2ccncc2C1=O (stereo not drawn)
inactive: A498 > 100 µM | A549 > 100 µM | ACHN > 100 µM | BT-549 > 100 µM | CCRF-CEM > 100 µM | COLO 205 > 100 µM | EKVX > 100 µM | Hs-578T > 100 µM | MDA-MB-435 > 100 µM | Malme-3M > 100 µM | NCI-H226 > 100 µM | NCI-H522 > 100 µM | NCI/ADR-RES > 100 µM | SN12C > 100 µM | SNB-19 > 100 µM | SNB-75 > 100 µM | T47D > 100 µM | U-251 > 100 µM | UACC-257 > 100 µM

[N-]=[N+]=C1C(=O)c2ccccc2-c2ccccc21
inactive: A498 16.3 µM | A549 30.4 µM | ACHN 38.6 µM | BT-549 34.4 µM | CCRF-CEM 20.2 µM | COLO 205 32.1 µM | EKVX 30.5 µM | Hs-578T 33 µM | MDA-MB-435 40.7 µM | NCI-H226 30 µM | NCI-H522 24.4 µM | NCI/ADR-RES 25.6 µM | SN12C 35.2 µM | SNB-19 45.8 µM | SNB-75 20 µM | T47D 28.3 µM | U-251 31.3 µM | UACC-257 36.7 µM

Fc1ccc2nc3n(c2c1)C(c1c(Cl)cccc1Cl)SC3 (stereo not drawn)
inactive: A498 > 100 µM | A549 > 100 µM | ACHN > 100 µM | BT-549 > 100 µM | COLO 205 > 100 µM | Hs-578T > 100 µM | MDA-MB-435 > 100 µM | Malme-3M > 100 µM | NCI-H226 > 100 µM | NCI-H522 29.4 µM | NCI/ADR-RES > 100 µM | SN12C > 100 µM | SNB-19 > 100 µM | SNB-75 63.4 µM | T47D > 100 µM | U-251 > 100 µM | UACC-257 > 100 µM

OCC1OC(c2n[nH]c3c(O)ncnc23)C(O)C1O (stereo not drawn)
inactive: A498 30.1 µM | ACHN 4.01 µM | BT-549 56.8 µM | CCRF-CEM 7.38 µM | COLO 205 13.9 µM | EKVX 28 µM | Hs-578T 33.8 µM | MDA-MB-435 34.4 µM | Malme-3M 16.1 µM | NCI-H226 44.9 µM | NCI-H522 10.2 µM | NCI/ADR-RES 4.22 µM | SN12C 10.3 µM | SNB-19 31 µM | SNB-75 > 100 µM | T47D 4.72 µM | U-251 47.9 µM | UACC-257 > 100 µM

O=C(OCc1ccccc1)N1CCN(C(=O)OCc2ccccc2)CCN(C(=O)OCc2ccccc2)CCN(C(=O)OCc2ccccc2)CCN(C(=O)OCc2ccccc2)CC1
inactive: A498 > 100 µM | A549 > 100 µM | ACHN > 100 µM | BT-549 > 100 µM | COLO 205 31.1 µM | EKVX > 100 µM | Hs-578T 39.3 µM | MDA-MB-435 > 100 µM | Malme-3M 24.4 µM | NCI-H226 > 100 µM | NCI-H522 68.2 µM | NCI/ADR-RES 79.4 µM | SN12C > 100 µM | SNB-19 > 100 µM | SNB-75 30.9 µM | T47D > 100 µM | U-251 76.7 µM | UACC-257 26.7 µM

CN(C)c1ccc(/C=N/c2ccc(-c3nc4ccccc4o3)cc2)cc1
inactive: A498 53 µM | A549 46.9 µM | ACHN 54.3 µM | BT-549 32.4 µM | COLO 205 30.5 µM | EKVX 28.6 µM | Hs-578T > 100 µM | MDA-MB-435 30.1 µM | Malme-3M > 100 µM | NCI-H522 42.3 µM | NCI/ADR-RES 33.5 µM | SN12C 60.8 µM | SNB-19 > 100 µM | SNB-75 54.7 µM | T47D 19.4 µM | U-251 31.7 µM | UACC-257 25.5 µM

CCOC(=O)c1ccc(Nc2cnc3cc(C(F)(F)F)ccc3n2)cc1
inactive: A498 > 100 µM | A549 > 100 µM | ACHN > 100 µM | BT-549 > 100 µM | CCRF-CEM > 100 µM | COLO 205 > 100 µM | EKVX > 100 µM | Hs-578T > 100 µM | MDA-MB-435 > 100 µM | Malme-3M > 100 µM | NCI-H226 > 100 µM | NCI-H522 > 100 µM | NCI/ADR-RES > 100 µM | SN12C > 100 µM | SNB-75 44.9 µM | T47D > 100 µM | U-251 > 100 µM | UACC-257 > 100 µM

CCOC(=O)c1sc2nc(SC)nc(Nc3ccc(OC)c(OC)c3)c2c1N
inactive: A498 4.76 µM | A549 5.28 µM | ACHN 13.2 µM | BT-549 17.7 µM | CCRF-CEM 1.3 µM | COLO 205 83.4 µM | EKVX 23.3 µM | Hs-578T 17.7 µM | MDA-MB-435 34.3 µM | Malme-3M 23.2 µM | NCI-H226 7.94 µM | NCI-H522 5.79 µM | NCI/ADR-RES 3.48 µM | SN12C 60.3 µM | SNB-19 18 µM | T47D 6.08 µM | U-251 3.03 µM | UACC-257 > 100 µM

CCC1c2[nH]c3ccccc3c2C[C@H]2C(=O)NC(COC(C)(C)C)C(=O)N12 (stereo partly drawn)
inactive: A498 72.3 µM | A549 39.3 µM | ACHN 42 µM | BT-549 34 µM | COLO 205 19.7 µM | EKVX 45.2 µM | Hs-578T 25.8 µM | MDA-MB-435 37.7 µM | Malme-3M 21.7 µM | NCI-H226 > 100 µM | NCI-H522 38.5 µM | NCI/ADR-RES 40.7 µM | SN12C 45.5 µM | SNB-19 49.1 µM | SNB-75 19.8 µM | T47D 44.9 µM | U-251 40.7 µM | UACC-257 25.2 µM
